Assay [1] has as its target T1, SHP1 (Homo sapiens, UniProt P29350).
T1 construct: SHP1, residues 245-543; made in house; host or cells: E. coli BL21(DE3)
Briefly: IC50 after 10-min/60-min preincubation, DiFMUP phosphatase assay. In kind it is biochemical. The text has this:
The PTP‐catalyzed reaction involves a nucleophilic attack by the conserved active site Cys side chain on the phosphorus atom of phosphotyrosine in the substrate.^[ [53] ^] As such, the PTPs could serve as prime targets for covalent inhibition. Previously described activity‐based probes or covalent ligands for the PTPs are either phosphotyrosine isosteres or thiol‐reactive compounds that covalently modify the active site residues (including the catalytic Cys) and lack sufficient isozyme specificity.^[ [54], [55], [56], [57], [58], [59], [60], [61] ^] Inspired by the resurgence in covalent inhibitors for difficult drug targets, we set out to discover covalent SHP1 inhibitors by screening for electrophilic fragments that bind covalently to SHP1. This strategy is increasingly utilized to identify novel ligands for a target of interest.^[ [47], [62], [63] ^] We assembled a library of 4600 Cys reactive molecules from the Enamine covalent fragment collections containing 49.0% acrylamide, 38.1% chloroacetamide, 5.15% chloromethylketone, 5.20% activated nitrile, 2.10% epoxide, and 0.53% disulfide (Figure S1A). We carried out a high‐throughput biochemical fragment screening of this curated commercially available library against the SHP1 catalytic domain (residues 245–543). Each fragment (500 µM) was incubated with SHP1 (500 nM) for 30 min at room temperature before diluting the reaction 5.5‐fold with 24.45 mM para‐nitrophenyl phosphate (pNPP) to measure the residual PTP activity. This concentration of substrate was chosen to out‐compete any remaining fragment to reduce the inactivation of SHP1 during the enzymatic hydrolysis of pNPP. After a 2‐min incubation at 25 °C, the reaction was quenched by the addition of 5N NaOH, and the production of para‐nitrophenol was determined by absorbance at 405 nm. This assay format afforded a Z’‐factor of 0.70 (Figure S1B), indicating a robust screen to reliably identify hit molecules. To enhance the probability of discovering covalent ligands with inherent preference for SHP1, we also counter‐screened the same library against SHP2, the closest homolog of SHP1, and two other widely studied PTPs, PTP1B and PTPN22 (also called LYP). […] Among these, 31 were repurchased based on their observed preference for SHP1 and structural diversity, 11 of which were confirmed as potential covalent inhibitors for SHP1 based on the time dependency of their half‐maximal inhibition concentration (IC50) values determined with a 10‐min and 60‐min preincubation time, respectively (Table 1).
To further confirm the time-dependent inhibition and determine the IC50 of acquired hits, repurchased compounds from Enamine were serially diluted in a 96-well plate, followed by the addition of proteins at 200 nM. After 10-minute and 60-minute preincubation, 2 µL of the mixture was transferred into 100 µM 6,8-Difluoro-4-Methylumbelliferyl Phosphate (DiFMUP, Invitrogen, cat# D6567) at a final volume of 200 µL. The reaction was allowed to proceed for 5 minutes and quenched by the addition of 40 µl of a 160 µM solution of bpV(Phen) (Sigma-Aldrich, cat# SML0889). The fluorescence signal was measured using a CLARIOstar Plus Microplate Spectrophotometer (BMG Labtech) using excitation and emission wavelengths of 340 nm and 450 nm, respectively. Data were fitted using Prism GraphPad 10.1.1.

The test system of the next assay is MC38 colorectal tumors. Kind of assay: MC38 syngeneic tumor model. In kind it is in vivo, C57BL/6 mice. The conditions noted are these: IP 15 mg/kg as printed in Figure S5.
For assay [2], the target named is T1, SHP1. Briefly: Thermal shift assay. In kind it is binding. The conditions noted are these: vs DMSO control. The text has this:
Building on the results from the SAR “by‐catalog” study, the following medicinal chemistry effort was prioritized on a systematic survey of the central phenyl scaffold, the sulfonamide linker, and the distal aryl moiety with the goal of a multiparameter optimization of potency and selectivity for SHP1 inhibition as well as drug‐like properties such as aqueous solubility and cell permeability. Additionally, given the crucial requirement for targeted covalent inhibitors to maintain tempered reactivity that enables selective target engagement and reduces cross‐reactivity to by‐standing nucleophiles in the cellular milieu,^[ [74], [75] ^] the medicinal chemistry campaign also sought to lower SHP1 covalent inhibitor reactivity with GSH and cytotoxicity. Careful assessment and evaluation of the SAR and other desirable drug‐like attributes of all synthesized molecules led to the identification of M029 (Figure 2a and Figure S2D, manuscript in preparation). […] To determine the selectivity of M029 for SHP1, we measured the IC50 value for M029‐mediated inhibition of a number of PTPs after a 60‐min preincubation. […]
The mixtures were centrifuged to remove the unfolded SHP1 proteins, and the supernatants were spiked with a control protein CDC14A, followed by loading into SDS‐PAGE gels to quantify the relative SHP1 level.

Molecules are shown by their SMILES. Read-outs that look alike come from different tables or passages of the source.

T1 sequence (P29350 245-543): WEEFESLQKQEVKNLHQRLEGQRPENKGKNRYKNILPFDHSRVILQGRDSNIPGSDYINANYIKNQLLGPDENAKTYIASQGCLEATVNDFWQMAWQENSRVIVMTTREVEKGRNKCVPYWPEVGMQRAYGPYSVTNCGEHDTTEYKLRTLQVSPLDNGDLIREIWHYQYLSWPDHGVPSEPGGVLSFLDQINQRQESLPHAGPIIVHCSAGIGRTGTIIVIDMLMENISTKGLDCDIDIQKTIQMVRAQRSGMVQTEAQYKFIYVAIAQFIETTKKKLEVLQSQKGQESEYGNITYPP

By IC50 is commonly meant the point on the concentration scale where inhibition reaches its midpoint. As to `N#Cc1ccsc1NS(=O)(=O)c1ccc(NC(=O)CCl)cc1` [M029, 2-Chloro-N-(4-(N-(3-cyanothiophen-2-yl)sulfamoyl)phenyl)acetamide], the “selectivity over a large panel of mammalian PTPs” value at SHP1 [1] (60-min preincubation IC50 values, incl. SHP2) is more than 22.4 fold. Also, the IC50 at SHP1 [1] (60-min preincubation, read-out: 60 min IC50, SHP1) is 2.6 ± 0.5 µM. The “MC38 tumor progression, IP dosage” value in the assay with MC38 colorectal tumors is reported as “delayed MC38 tumor progression”. In addition, the “decrease in SHP1 protein melting temperature” value at SHP1 [2] turned out to be 1.8 °C.
As for `O=C(CCl)Nc1ccc(S(=O)(=O)Nc2nccs2)cc1` [Z57117023, 2-chloro-N-(4-(N-(thiazol-2-yl)sulfamoyl)phenyl)acetamide], the IC50 was found to be 99.1 µM at SHP1 [1] (10-min preincubation, purchased hits, read-out: SHP1 IC50, 10 min); 17.5 µM on SHP1 [1] (60-min preincubation, purchased hits, read-out: SHP1 IC50, 60 min); 118 ± 8.3 µM on SHP1 [1] (resynthesized compound, 10 min preincubation, read-out: SHP1 IC50, 10 min preincubation); 25.2 ± 1.6 µM at SHP1 [1] (resynthesized compound, 60 min preincubation, read-out: SHP1 IC50, 60 min preincubation). The “selectivity for SHP1 over SHP2, PTP1B, and PTPN22” value on SHP1 [1] (from IC50 values) was more than 11 fold.
